Test systems include CAKI-1 renal; EKVX NSCLC; HCT-15 colon; HOP-62 NSCLC; NCI-H226 lung; OVCAR-3 ovarian; SF-295 CNS; SF-539 CNS; SK-MEL-5 melanoma; SN12C renal; SNB-19 CNS; HCC-2998 colon; UO-31 renal.
Common to all, as to test: growth of human tumour cells (NCI), 48 h

Structures are written as SMILES.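 Cultured in 96-well plates, cells were exposed to test compound for 48 hours across five concentrations. TGI marks complete inhibition of growth.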

With `CC(=O)c1ccc2c(c1)oc(=O)n2CCN1CCCCC1`, the TGI with CAKI-1 renal, in the test on EKVX NSCLC, in the test with HCT-15 colon, in the test on HOP-62 NSCLC, in the test on NCI-H226 lung and in the test with OVCAR-3 ovarian was above 100 µM in each case. For the same molecule, the TGI in the test on SF-295 CNS, in the test with SF-539 CNS, in the test with SK-MEL-5 melanoma, in the test with SN12C renal and in the test with SNB-19 CNS was above 100 µM throughout.

With `CC1(C)OCC(C2OC(N3O[C@H](CI)C[C@@H]3c3ccccc3)C3OC(C)(C)OC23)O1` (some centres not stated), the TGI in the test on CAKI-1 renal, with EKVX NSCLC, in the test on HCC-2998 colon, in the test on HCT-15 colon, in the test with HOP-62 NSCLC and in the test with OVCAR-3 ovarian was above 100 µM each time. The TGI with SF-295 CNS, with SF-539 CNS, in the test with SK-MEL-5 melanoma, with SN12C renal, with SNB-19 CNS and with UO-31 renal was above 100 µM each time.

On to `CCCCCc1c2nc(c(CCCCC)c3ccc([nH]3)c(CCCCC)c3ccc([nH]3)c(CCCCC)c3nc1C=C3)C=C2`, for which the TGI in the test on CAKI-1 renal, with EKVX NSCLC, with HCC-2998 colon, with HCT-15 colon, in the test on HOP-62 NSCLC and with OVCAR-3 ovarian was above 100 µM each time. The TGI in the test on SF-295 CNS, in the test on SF-539 CNS, with SK-MEL-5 melanoma, in the test with SN12C renal, in the test on SNB-19 CNS and in the test on UO-31 renal was above 100 µM throughout.

As to `CCOC(=O)CC[C@@H](NC(=O)c1ccc(N[C@@H]2c3cc4c(cc3C(c3cc(OC)c(O)c(OC)c3)C3C(=O)OC[C@@H]32)OCO4)cc1)C(=O)OCC` (some centres not stated), the TGI in the test on CAKI-1 renal was determined as 0.0539 µM; in the test with EKVX NSCLC, 0.0799 µM; in the test with HCC-2998 colon, 0.318 µM; in the test with HCT-15 colon, 0.233 µM; with HOP-62 NSCLC, 0.0424 µM; in the test on OVCAR-3 ovarian, 0.37 µM. For the same molecule, the TGI with SF-295 CNS amounted to 0.0497 µM; with SF-539 CNS, 0.0478 µM; with SK-MEL-5 melanoma it was 0.144 µM; with SN12C renal, 0.0897 µM; with SNB-19 CNS it was 0.116 µM; with UO-31 renal, 0.194 µM.

For the molecule `O=C(Cc1ccccc1)c1ccc2[nH]c(=O)oc2c1`, the TGI in the test with CAKI-1 renal was above 100 µM; in the test with EKVX NSCLC it was 64.4 µM; with HCT-15 colon, above 100 µM; in the test on HOP-62 NSCLC, above 100 µM; with NCI-H226 lung it was 63.2 µM; with OVCAR-3 ovarian, above 100 µM. The TGI in the test with SF-295 CNS, in the test with SF-539 CNS and with SN12C renal was above 100 µM in each case.

For the molecule `COC12C=CC(CC1)C1C(=O)c3c(C)c(C)n(C)c3C(=O)C12` (configuration not stated), the TGI with EKVX NSCLC, in the test with HCT-15 colon, in the test with HOP-62 NSCLC, with NCI-H226 lung, with OVCAR-3 ovarian and in the test on SF-295 CNS was above 100 µM in each case. The TGI in the test on SF-539 CNS, in the test on SK-MEL-5 melanoma, in the test on SNB-19 CNS and in the test with UO-31 renal was above 100 µM in each case.

For the molecule `COC(=O)CC1C(=O)OCc2c1cc1n(c2=O)Cc2c-1nc1ccccc1c2OC` (configuration not stated), the TGI is 34.4 µM in the test with CAKI-1 renal; above 100 µM with EKVX NSCLC; above 100 µM in the test with HCC-2998 colon; above 100 µM in the test on HCT-15 colon; above 100 µM in the test on HOP-62 NSCLC; above 100 µM in the test on SK-MEL-5 melanoma. The TGI in the test with SN12C renal, in the test on SNB-19 CNS and in the test with UO-31 renal was above 100 µM each time.

Turning to `C=C[C@H]1CN2CCc3c([nH]c4c([C@H]5CCCN5C)c(O)ccc34)[C@@H]2C[C@@H]1C[C@H]1c2[nH]c3ccccc3c2CCN1C`, the TGI was determined as 3.17 µM in the test with CAKI-1 renal; 3.34 µM in the test with EKVX NSCLC; 1.21 µM in the test on HCC-2998 colon; 2.3 µM with HCT-15 colon; 3 µM in the test with HOP-62 NSCLC; 3 µM in the test on OVCAR-3 ovarian. The TGI in the test on SF-295 CNS came out at 3.25 µM; with SN12C renal, 3.04 µM; in the test with SNB-19 CNS, 3.57 µM; in the test with UO-31 renal it was 3.24 µM.

`CC1N(C)C(=O)OC12CCN(CCCC(=O)c1ccc(F)cc1)CC2` (configuration not stated): the TGI in the test on CAKI-1 renal, with HCT-15 colon, with HOP-62 NSCLC, with NCI-H226 lung, with OVCAR-3 ovarian and with SF-295 CNS was above 100 µM in each case. Besides, the TGI with SF-539 CNS, with SK-MEL-5 melanoma, in the test with SN12C renal, in the test with SNB-19 CNS and in the test on UO-31 renal was above 100 µM each time.

Take `CCN(CC)Cc1cc(Nc2c3ccccc3nc3c2[nH]c2ccccc23)ccc1O`: the TGI is 4.2 µM in the test on CAKI-1 renal; 6.32 µM in the test on EKVX NSCLC; 3.25 µM in the test with HCT-15 colon; 3.16 µM in the test on HOP-62 NSCLC; 5.06 µM in the test with NCI-H226 lung; 2.83 µM with SF-295 CNS. Also, the TGI amounted to 2.74 µM with SF-539 CNS; 3.51 µM in the test with SK-MEL-5 melanoma; 6.22 µM in the test with SN12C renal; 5.03 µM with SNB-19 CNS; 3.56 µM with UO-31 renal.

`CCC1(N=[N+]=[N-])C(=O)Nc2cc(C)ccc2C1=O` (configuration not stated): the TGI in the test with CAKI-1 renal, in the test on EKVX NSCLC, with HCC-2998 colon, in the test with HCT-15 colon, in the test with HOP-62 NSCLC and with OVCAR-3 ovarian was above 100 µM each time. The TGI in the test on SF-295 CNS, with SF-539 CNS, with SK-MEL-5 melanoma, in the test on SN12C renal, in the test on SNB-19 CNS and with UO-31 renal was above 100 µM each time.

As to `Cc1c2c(n(CCc3ccccc3)c1C)NN=C(C#N)S2(=O)=O`, the TGI in the test on EKVX NSCLC, in the test with HCC-2998 colon, in the test on HCT-15 colon, in the test with HOP-62 NSCLC, with OVCAR-3 ovarian and in the test with SF-539 CNS was above 100 µM throughout. Further, the TGI with SK-MEL-5 melanoma, in the test on SN12C renal, in the test with SNB-19 CNS and with UO-31 renal was above 100 µM throughout.

Consider `OC1CC(O)c2c(Cl)sc(Cl)c21` (configuration not stated), for which the TGI is above 100 µM with CAKI-1 renal; above 100 µM with EKVX NSCLC; above 100 µM in the test on HCT-15 colon; 98.4 µM in the test with HOP-62 NSCLC; above 100 µM in the test with NCI-H226 lung; 70.8 µM in the test with OVCAR-3 ovarian. Moreover, the TGI with SF-295 CNS was 87.3 µM; in the test on SF-539 CNS, above 100 µM; in the test on SK-MEL-5 melanoma, above 100 µM; in the test on SN12C renal it was above 100 µM; in the test with UO-31 renal, 77.5 µM.

Consider `Cc1cc(Cl)ccc1N=NC(=O)NNc1ccc(Cl)cc1C`, for which the TGI with HCC-2998 colon was 24.1 µM; with HCT-15 colon, 25.8 µM; in the test on HOP-62 NSCLC, 23.9 µM; with NCI-H226 lung, 36.1 µM; in the test on OVCAR-3 ovarian, 31 µM; with SK-MEL-5 melanoma, 26.9 µM. In addition, the results for the TGI with SN12C renal, in the test with SNB-19 CNS and in the test on UO-31 renal were 30.1 µM, 48.9 µM and 29.6 µM, respectively.

For `NC1CC(=O)c2cc(Br)sc21` (configuration not stated), the TGI with CAKI-1 renal, with EKVX NSCLC, in the test on HCC-2998 colon, in the test with HCT-15 colon, in the test with HOP-62 NSCLC and in the test with OVCAR-3 ovarian was above 100 µM throughout. For the same molecule, the TGI in the test with SF-539 CNS, in the test with SK-MEL-5 melanoma, in the test on SN12C renal, with SNB-19 CNS and in the test on UO-31 renal was above 100 µM in each case.

On to `CNC(=O)CCNC(=O)CCC(=O)OC`, for which the TGI with CAKI-1 renal, in the test on HOP-62 NSCLC, in the test with OVCAR-3 ovarian, in the test with SF-295 CNS, with SF-539 CNS and with SK-MEL-5 melanoma was above 100 µM in each case. Also, the TGI in the test on SN12C renal, in the test on SNB-19 CNS and in the test on UO-31 renal was above 100 µM in each case.

For `CC1(O)/C(=N/O)CC2CC1C2(C)C` (configuration not stated), the TGI with HCC-2998 colon, in the test with HCT-15 colon, in the test on NCI-H226 lung, with OVCAR-3 ovarian, in the test with SF-295 CNS and with SK-MEL-5 melanoma was above 100 µM each time. In addition, the TGI in the test on SN12C renal, in the test with SNB-19 CNS and in the test on UO-31 renal was above 100 µM throughout.

On to `COC1OC(CO)C(O)C(OC(=O)c2cc(O)c(O)c(O)c2)C1OC(=O)c1cc(O)c(O)c(O)c1` (configuration not stated), for which the TGI in the test with CAKI-1 renal, in the test on EKVX NSCLC, in the test with HCT-15 colon, in the test with HOP-62 NSCLC, with NCI-H226 lung and in the test with OVCAR-3 ovarian was above 100 µM in each case. Further, the TGI is 42.1 µM with SF-295 CNS; above 100 µM with SF-539 CNS; above 100 µM with SK-MEL-5 melanoma; above 100 µM in the test with SN12C renal; above 100 µM in the test with SNB-19 CNS; above 100 µM in the test with UO-31 renal.

Regarding `S=C(Nc1cccc(Cl)c1)Nc1ccccn1`, the TGI in the test on CAKI-1 renal, in the test with EKVX NSCLC, in the test with HCT-15 colon, in the test on HOP-62 NSCLC, with NCI-H226 lung and with OVCAR-3 ovarian was above 100 µM each time. For the same molecule, the TGI in the test on SF-295 CNS, in the test on SF-539 CNS, with SK-MEL-5 melanoma, with SN12C renal, with SNB-19 CNS and in the test with UO-31 renal was above 100 µM in each case.

Source of the values: PubChem BioAssay (NCI).
